Measured values reported in US11465998B2, “Therapeutic compounds and methods of use thereof” (Regents of the University of Minnesota, priority 2019, dated 2022).
Entries after “also recorded” stand apart in the source; their conditions may differ.

Key:
[1] = test system: RAW264.7 murine macrophages; experiment: Cytokine/chemokine induction in wild-type RAW264.7 murine macrophages (multiplexed immunoassay); format: cell-based; conditions: wild-type RAW264.7 murine macrophage cell line
Description: (§1) Cytokine induction by 7e and 7f was examined in murine-derived cell lines. […] The absence of activity was not due to extensive plasma protein binding by re-examining under near-serum-free conditions.
(§2) Example 5: High-throughput screens in porcine blood: Curated compound collections were obtained from the Institute for Therapeutics Discovery & Development at the University of Minnesota. Compound transfers from source (80 nL of 10 mM stocks) to assay plates were performed using an Echo 550 acoustic liquid handler (Labcyte, Sunnyvale, Calif.). For most libraries, a target final concentration of 10 μM of compound (in a final volume of 80 μL for the assay described below) was achieved. Compound plates were hermetically sealed and stored at −80° C. until used. Fresh, heparin-anticoagulated porcine blood from healthy animals were obtained under USDA supervision from Midwest Research Swine, LLC (Glencoe, Minn.). 80 μL of hematocrit-enriched porcine blood (low-speed centrifugation, followed by resuspension in DMEM supplemented with 10% fetal bovine serum) was added to compound plates and incubated for 15 h. […] NF-κB translocation was assayed spectrophotometrically using an alkaline phosphatase-specific chromogen (present in HEK-detection medium as supplied by InvivoGen) at 620 nm using a SpectraMax M4 multimode microplate reader (Molecular Devices, Sunnyvale, Calif.). […] Example 7: Human NOD1/2-specific reporter gene assays (NF-κB induction), and TLR-2/-3/-4/-5/-7/-8/-9/STING/ISG counter-screens: The induction of NF-κB was quantified using human TLR-2/-3/-4/-5/-7/-8/-9/NOD-1/NOD-2/STING/ISG-specific, rapid-throughput, liquid handler-assisted reporter gene assays as previously described by us (Wu, W. et al. J. Med. Chem. 2010, 53, 3198-3213; Shukla, N. M. et al. J. Med. Chem. 2010, 53, 4450-4465; Agnihotri, G. et al. J. Med. Chem. 2011, 54, 1490-1510 and Ukani, R. et al. Bioorg. Med. Chem. Lett. 2012, 22, 293-295). […]

[2] = test system: microglial cell line derived from MAL/MyD88 double knockout Mice (NR-9904); experiment: Cytokine/chemokine induction in MAL/MyD88 double-knockout cell line; format: cell-based; conditions: MAL/MyD88 double-knockout murine cell line
Description: as §1, §2

SMILES | induction of chemokines and proinflammatory cytokines [1] | cytokine and chemokine induction [2]
CCCCCc1nc2ccccc2n1-c1csc(C(N)=O)c1 [Compound 7e, 4-(2-Pentyl-1H-benzo[d]imidazol-1-yl)thiophene-2-carboxamide] | potently immunostimulatory; also recorded: induction of chemokines and cytokines | abrogation of responsiveness
CCCCCCc1nc2ccccc2n1-c1csc(C(N)=O)c1 [Compound 7f, 4-(2-Hexyl-1H-benzo[d]imidazol-1-yl)thiophene-2-carboxamide] | potently immunostimulatory; also recorded: essentially identical to that of 7e | essentially identical to that of 7e
